Columns and labels:
[1] = Cmax in Wistar rat at 5 mg/kg, po administered as triple or quadruple dosing measured after 1 to 24 hrs by reverse-phase HPLC method; type: ADME, organism-based; parameters: dose 5 mg/kg, route oral; details: in vivo
[2] = Tmax in Wistar rat at 5 mg/kg, po administered as triple or quadruple dosing measured after 1 to 24 hrs by reverse-phase HPLC method; type: ADME, organism-based; details: in vivo
[3] = Half life in Wistar rat at 5 mg/kg, po administered as triple or quadruple dosing measured after 1 to 24 hrs by reverse-phase HPLC method; type: ADME, organism-based; details: in vivo
[4] = molecular target: T1, Plasminogen activator inhibitor 1 (Homo sapiens, UniProt P05121); experiment: Inhibition of human PAI-1 assessed as remaining enzyme activity by measuring p-nitroaniline release pre-incubated for 15 mins before 2 nM […] addition for 15 mins using 5 nM enzyme and chromogenic substrate S-2288 by spectrophotometry
T1 sequence (P05121 whole entry): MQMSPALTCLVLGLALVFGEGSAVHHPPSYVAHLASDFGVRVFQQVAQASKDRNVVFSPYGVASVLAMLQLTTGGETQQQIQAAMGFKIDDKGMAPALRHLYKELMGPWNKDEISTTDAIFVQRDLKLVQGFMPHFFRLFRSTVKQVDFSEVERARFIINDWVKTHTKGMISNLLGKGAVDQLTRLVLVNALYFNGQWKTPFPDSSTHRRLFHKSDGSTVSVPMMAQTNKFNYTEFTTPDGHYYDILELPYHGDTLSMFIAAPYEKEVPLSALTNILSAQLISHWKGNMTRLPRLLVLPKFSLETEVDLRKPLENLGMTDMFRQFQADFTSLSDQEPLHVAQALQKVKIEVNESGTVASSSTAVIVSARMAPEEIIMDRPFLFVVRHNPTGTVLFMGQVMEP

[5] = Cmax in Wistar rat at 50 mg/kg, po administered as single dose measured after 1 to 24 hrs by reverse-phase HPLC method; type: ADME, organism-based; parameters: dose 50 mg/kg, route oral; details: in vivo
[6] = Tmax in Wistar rat at 50 mg/kg, po administered as single dose measured after 1 to 24 hrs by reverse-phase HPLC method; type: ADME, organism-based; details: in vivo
[7] = Cmax in Wistar rat at 5 mg/kg, po administered as single dose measured after 1 to 24 hrs by reverse-phase HPLC method; type: ADME, organism-based; parameters: dose 5 mg/kg, route oral; details: in vivo
[8] = Tmax in Wistar rat at 5 mg/kg, po administered as single dose measured after 1 to 24 hrs by reverse-phase HPLC method; type: ADME, organism-based; details: in vivo
[9] = Half life in Wistar rat at 5 mg/kg, po administered as single dose measured after 1 to 24 hrs by reverse-phase HPLC method; details: in vivo
[10] = Half life in Wistar rat at 50 mg/kg, po administered as single dose measured after 1 to 24 hrs by reverse-phase HPLC method; details: in vivo
[11] = molecular target: T1, Plasminogen activator inhibitor 1; experiment: Inhibition of human PAI-1 assessed as remaining enzyme activity by measuring p-nitroaniline release pre-incubated for 15 mins before 9.8 nM human tPA substrate addition for 15 mins using 24.5 nM enzyme and chromogenic substrate S-2288 by spectrophotometry

SMILES | Cmax [1] [µM] | Tmax [2] [h] | half-life [3] [h] | IC50 [4] [nM] | also measured
O=C(Nc1ccc(Cl)cc1C(=O)O)c1ccc(-c2ccccc2)cc1 | 73.5 | 2 | 10.4 | 2980 | 
O=C(Nc1ccc(Cl)cc1C(=O)O)c1cccc(C23CC4CC(CC(C4)C2)C3)c1 | 4.4 | 2 | 2.3 | 1860 | 
O=C(Nc1ccc(Cl)cc1C(=O)[O-])c1cccc(-c2cnc3ccccc3c2)c1.[Na+] | 1.1 | 2 | 3.5 | 1670 | 
O=C(COCC(=O)Nc1ccc(Cl)cc1C(=O)[O-])Nc1cccc(-c2ccc(F)cc2)c1.[Na+] |  |  |  |  | Cmax [5]: 62.8 µM; Tmax [6]: 1 h
O=C(COCC(=O)Nc1ccc(Cl)cc1C(=O)[O-])Nc1cccc(-n2cccc2)c1.[Na+] |  |  |  |  | Cmax [7]: 7.4 µM; Tmax [8]: 2 h; half-life [9]: 2.2 h
O=C(Nc1ccc(Cl)cc1C(=O)[O-])c1cccc(-c2cncc3ccccc23)c1.[Na+] | 1 | 6 | 9.2 | 3190 | 
O=C(COCC(=O)Nc1ccc(Cl)cc1C(=O)O)Nc1cccc(-c2ccoc2)c1 |  |  |  |  | Cmax [5]: 149 µM; Tmax [6]: 1 h; Cmax [7]: 17.9 µM; Tmax [8]: 1 h
O=C(NCc1cccc(-c2ccoc2)c1)C(=O)Nc1ccc(Cl)cc1C(=O)O | 41.6 | 2 | > 22 |  | 
O=C(Nc1ccc(Cl)cc1C(=O)[O-])c1cccc(-c2cccc3cnccc23)c1.[Na+] | 1.2 | 2 | 10.5 | 1840 | 
O=C(COc1cccc(-c2ccoc2)c1)Nc1ccc(Cl)cc1C(=O)O | 56.3 | 2 | 1.9 |  | 
COc1cccc(-c2ccc(C)c(NC(=O)COCC(=O)Nc3ccc(Cl)cc3C(=O)O)c2)c1 |  |  |  |  | Cmax [7]: 9.4 µM; Tmax [8]: 2 h; half-life [9]: 1.5 h
O=C(Nc1ccc(Cl)cc1C(=O)O)c1ccc(C(=O)c2ccccc2)cc1 | 35 | 1 | 0.9 | 4110 | 
O=C(COCC(=O)Nc1ccc(Cl)cc1C(=O)[O-])Nc1cccc(-c2cccnc2)c1.[Na+] |  |  |  |  | Cmax [5]: 15.1 µM; Tmax [6]: 2 h
Cc1ccc(-c2ccc(F)cc2)cc1NC(=O)COCC(=O)Nc1ccc(Cl)cc1C(=O)O |  |  |  |  | Cmax [5]: 92.7 µM; Tmax [6]: 1 h; half-life [10]: 1.8 h
O=C(COCC(=O)Nc1ccc(Cl)cc1C(=O)O)NCc1cccc(-c2ccoc2)c1 | 14 | 2 | 2.7 |  | 
O=C(Nc1ccc(Cl)cc1C(=O)O)c1ccc(C2CCOCC2)cc1 | 45.5 | 1 | 1.8 | 21600 | 
O=C(Nc1ccc(Cl)cc1C(=O)[O-])c1cccc(-c2cccc3cccnc23)c1.[Na+] | 22.2 | 1 | 2.5 | 3630 | 
O=C(Nc1ccc(Cl)cc1C(=O)O)c1ccc(C23CC4CC(CC(C4)C2)C3)cc1 | 13.8 | 2 | 4.3 | 1170 | 
O=C(COCC(=O)Nc1ccc(Cl)cc1C(=O)O)Nc1cccc(-c2ccsc2)c1 |  |  |  |  | Cmax [5]: 86.5 µM; Tmax [6]: 2 h
O=C(Nc1ccc(Cl)cc1C(=O)O)c1ccc(Oc2ccccc2)cc1 | 64.2 | 6 | 13.3 | 5520 | 
O=C(COCC(=O)Nc1ccc(Cl)cc1C(=O)O)Nc1ccc(-c2ccncc2)cc1 |  |  |  |  | Cmax [5]: 7.8 µM; Tmax [6]: 6 h
O=C(Nc1cccc(-c2ccoc2)c1)C(=O)Nc1ccc(Cl)cc1C(=O)O | 22.5 | 2 | 1.7 |  | 
O=C(COCC(=O)Nc1ccccc1-c1ccc(F)cc1)Nc1ccc(Cl)cc1C(=O)O |  |  |  |  | Cmax [5]: 41.8 µM; Tmax [6]: 1 h
CC(C)Oc1ccc(C(=O)Nc2ccc(Cl)cc2C(=O)O)cc1 | 22.3 | 1 | 5 | > 10000 | 
COc1ccccc1-c1ccc(C)c(NC(=O)COCC(=O)Nc2ccc(Cl)cc2C(=O)O)c1 |  |  |  |  | Cmax [7]: 2.08 µM; Tmax [8]: 2 h; half-life [9]: 2.5 h

SMILES | Cmax [1] [µM] | Tmax [2] [h] | half-life [3] [h] | IC50 [4] [nM] | also measured
CC(=O)Nc1ccc(-c2ccc(C)c(NC(=O)COCC(=O)Nc3ccc(Cl)cc3C(=O)O)c2)cc1 |  |  |  |  | Cmax [5]: 0.32 µM; Tmax [6]: 2 h; half-life [10]: 1.4 h
O=C(COCC(=O)Nc1ccc(Cl)cc1C(=O)O)Nc1ccc(-c2ccoc2)cc1 |  |  |  |  | Cmax [7]: 17.6 µM; Tmax [8]: 2 h; half-life [9]: 4.2 h
O=C(Nc1ccc(Cl)cc1C(=O)[O-])c1cccc(-c2ccncc2)c1.[Na+] | 5.2 | 2 | 1.6 | > 40000 | 
O=C(COCC(=O)Nc1ccc(Cl)cc1C(=O)O)Nc1cccc(-c2ccncc2)c1 |  |  |  |  | Cmax [5]: 18 µM; Tmax [6]: 6 h; half-life [10]: > 18 h
O=C(Nc1ccc(Cl)cc1C(=O)O)c1ccc(-c2cccs2)cc1 | 38.4 | 2 | 1.9 | > 20000 | 
O=C(COCC(=O)Nc1ccc(Cl)cc1C(=O)O)Nc1cccc(-c2cn[nH]c2)c1 |  |  |  |  | Cmax [7]: 1.7 µM; Tmax [8]: 1 h; half-life [9]: 3.1 h
O=C(Nc1ccc(Cl)cc1C(=O)O)c1cccc(C2CCCCC2)c1 | 3.3 | 1 | 1.4 | 2420 | 
O=C(COCC(=O)Nc1ccc(Cl)cc1C(=O)O)Nc1cccc(-c2ccno2)c1 |  |  |  |  | Cmax [7]: 14 µM; Tmax [8]: 1 h; half-life [9]: 6 h
CC(C)(C)c1ccc(C(=O)Nc2ccc(Cl)cc2C(=O)O)cc1 | 64.9 | 1 | 3.4 | 5200 | 
O=C(CSCC(=O)Nc1ccc(Cl)cc1C(=O)O)Nc1cccc(-c2ccoc2)c1 | 5.4 | 1 | 2.6 |  | 
O=C(COCC(=O)Nc1ccc(Cl)cc1C(=O)O)Nc1cccc(C(F)(F)F)c1 |  |  |  |  | Cmax [5]: 58.6 µM; Tmax [6]: 1 h; half-life [10]: 0.8 h
O=C(Nc1ccc(Cl)cc1C(=O)O)c1cccc(-c2cccc3ccccc23)c1 | 6.3 | 2 | 1.7 | 900 | 
O=C(COCC(=O)Nc1ccc(Cl)cc1C(=O)O)Nc1cccc(-c2ccon2)c1 |  |  |  |  | Cmax [7]: 2 µM; Tmax [8]: 2 h; half-life [9]: 1.9 h
O=C(COCC(=O)Nc1ccc(Cl)cc1C(=O)[O-])Nc1cccc(-c2ccccn2)c1.[Na+] |  |  |  |  | Cmax [5]: 136 µM; Tmax [6]: 1 h; half-life [10]: 2.4 h
O=C(COCC(=O)N1CCN(C(c2ccccc2)c2ccccc2)CC1)Nc1ccc(Cl)cc1C(=O)O |  |  |  |  | Cmax [5]: 34.2 µM; Tmax [6]: 2 h; half-life [10]: 2.5 h; IC50 [11]: 7940 nM
COc1ccc(-c2ccc(C)c(NC(=O)COCC(=O)Nc3ccc(Cl)cc3C(=O)O)c2)cc1 |  |  |  |  | Cmax [7]: 2.2 µM; Tmax [8]: 2 h; half-life [9]: 1 h
O=C(COCC(=O)Nc1ccc(Cl)cc1C(=O)O)Nc1cccc(-c2ccco2)c1 |  |  |  |  | Cmax [7]: 11.5 µM; Tmax [8]: 2 h; half-life [9]: 4 h
O=C(Nc1ccc(Cl)cc1C(=O)O)c1cccc(-c2ccccc2)c1 | 17 | 2 | 1.6 | 2820 | 
O=C(Cc1cccc(-c2ccoc2)c1)Nc1ccc(Cl)cc1C(=O)O | 43.1 | 2 | 1.9 |  | 
O=C(Nc1ccc(Cl)cc1C(=O)O)c1cccc(-c2ccoc2)c1 | 29.4 | 2 | 2 |  | 
CCN(C(=O)COCC(=O)Nc1ccc(Cl)cc1C(=O)O)c1cc(-c2ccc(F)cc2)ccc1C |  |  |  |  | Cmax [7]: 0.82 µM; Tmax [8]: 1 h; half-life [9]: 0.9 h
O=C(Nc1ccc(Cl)cc1C(=O)O)c1ccc(C2CCCCC2)cc1 | 15.2 | 1 | 0.7 | 2400 | 
Cn1cc(-c2cccc(NC(=O)COCC(=O)Nc3ccc(Cl)cc3C(=O)O)c2)cn1 |  |  |  |  | Cmax [5]: 20.5 µM; Tmax [6]: 2 h; half-life [10]: 9.9 h
O=C(Nc1ccc(Cl)cc1C(=O)O)c1cccc(C2=CCCCC2)c1 | 5.2 | 1 | 0.7 | 2310 | 

Reference: ChEMBL document CHEMBL4184220, “Identification of novel plasminogen activator inhibitor-1 inhibitors with improved oral bioavailability: Structure optimization of N-acylanthranilic acid derivatives” (Bioorg Med Chem Lett, 2018)
